Patent publication US12553889B2, “Small molecules targeting the intrinsically disordered structural ensemble of α-synuclein protect against diverse α-synuclein mediated dysfunctions” (The Regents of the University of California, priority 2019, dated 2026)
Entries after “also recorded” stand apart in the source; their conditions may differ.

What was measured:
αSyn [1] = target: T1, αSyn (Homo sapiens, UniProt P37840); assay: αSyn fibrillization assay (Thioflavin T fluorescence); format: biochemical; design: made in house; host or cells: E. coli BL21(DE3), pET-21d; conditions: for impact on αSyn fibrillization (thioflavin fluorescence signal): compound at 300 μM, 70 μM αSyn, vs 0.5% DMSO control
Experimental: (§1) Fibrillization assays. Prior to each aggregation assay, purified αSyn at 5 mg/mL was treated with 6M guanidine and dialyzed 36 hours in a 3500 MW cutoff Slide-A-lyzer with three changes of 20 mM sodium phosphate and 100 mM NaCl pH 7.4 buffer. αSyn was centrifuged at 130,000 g for 40 minutes in a Beckman Ultracentrifuge to remove seeding species and supernatant used for assays. For initial testing, 60 mM compound in DMSO was diluted to 300 μM in 0.5% DMSO and controls contained equivalent DMSO concentrations. Assay samples contained 20 μM Thioflavin T, filtered through a 0.45 μm Acrodisc filter prior to each assay, 70 μM αSyn in 20 mM sodium phosphate and 100 mM NaCl pH 7.4. One teflon bead, (0.125″ PTFE, Grade 2 polished) was placed in each well of a 96 well black with clear bottom assay plate (Corning) in a total volume of 500 μL. The plate was sealed with Mylar and parafilm, placed at 37° C. in a Tecan F200Pro Plate Reader and shaken at an amplitude of 6 mm for 120 hours continuously except for a brief time during reading of the plate. Thioflavin T fluorescence was detected by excitation at 440 nm and reading emissions at 485 nm each 60 minutes throughout the assay. To generate αSyn seeds for the seeding assays, αSyn at 10 mg/mL was incubated with stirring at 43° C. for 24 hours followed by exhaustive sonication. 1% (by mass) of seeds were added to the fibrillization assay. Samples were plated in quadruplicate, and the replicates averaged for each experiment for plotted data. Data were analyzed in Excel using XL-fit sigmoidal model #600 and when normalized, comparing fluorescence values at 50 hours for compounds as a percentage of DMSO control.
α-Syn for the Fibrillization assay. Wildtype human αSyn was produced from a pET-21d plasmid (Millipore, Burlington, MA) in E. coli BL21(DE3) cells induced by addition of 1 mM […] and incubated at 16° C. overnight. Cells were harvested by centrifugation at 4,000×g for 10 minutes and stored at −80° C. Frozen cells expressing αSyn protein were resuspended in 50 mM Tris, pH 7.5, 1 mM TCEP, 1 mM EDTA, and 1 mM L-Methionine and lysed using a microfluidizer. Lysate was centrifuged at 7000×g for 0.5 hours at 21° C. The supernatant was boiled in a water bath for 15 minutes, cooled on ice and centrifuged at 45,000 g for 30 min. The supernatant was filtered through a 0.2 μm Corning filter and subjected to ion exchange chromatography using a Capto ImpRes Q (GE Healthcare, Upssala, Sweden) anion exchange (IEX) column at ambient temperature. The column was eluted with a gradient of 100 column volumes from 0 to 1M NaCl using an AKTA Explorer 100 Liquid Chromatography System (GE Healthcare, Uppsala, Sweden). Pure αSyn fractions were desalted to 50 mM KPO4, pH 7.5 and 50 mM NaCl using PD-10 columns (GE Healthcare, Chicago, IL) and concentrated to 5 mg/mL or 10 mg/ml (3K MWCO, Amicon Ultra, Millipore, Burlington, MA).
Statistical Analysis of compound activity in Fibrillization assays. For the analyses of compound activity in the αSyn fibrillization assay, the relative fluorescence unit (RFU) data obtained from compounds were compared to those of DMSO, to identify those that are statistically different from DMSO at various time points. Each experiment contained 4 replicates of each compound and of DMSO control. […] A repeated measures analysis of variance was performed on logarithmic transformed data using a linear mixed effects model which included Compound, Time, Replicate (Compound) and Compound*Time. The covariance structure across time that minimized the corrected Akaike Information Criterion (AICC) was used and the Kenward and Roger method was used to determine the appropriate degrees of freedom. Each compound mean was compared to the DMSO mean using Bonferroni multiplicity adjusted t-tests. Statistical analyses were conducted using the MIXED procedure in SAS 9.1 (SAS Institute Inc. Cary, NC, USA). Statistical significance refers to p-value<0.05.

αSyn [2] = assay: Western analyses of αSyn levels in H4 cells; format: cell-based, human; conditions: H4 cells transiently transfected with split Gaussia luciferase tagged αSyn, 150 μM
Experimental: All materials were purchased from Invitrogen (Carlsbad, CA) unless stated otherwise. Cell from a 6 well dish were washed twice with PBS and lysed with 250 μl of RIPA Lysis buffer with protease and phosphatase inhibitors (Sigma, St. Louis, MO). Lysates were incubated on a shaker for 15 minutes at 4° C. and spun down for 15 min. at 10,000 g. Total protein concentrations were determined by BCA assay (Thermo Fisher, Waltham, MA). 1 ml of media was collected and incubated with protease and phosphatase inhibitors and 50 μl of Ni-agarose beads to collect the His-tagged αSyn (Qiagen, Hilden, Germany) for 2 hrs at […]. Beads were centrifuged and washed in PBS. Cell samples and pelleted beads from the media were placed into Bolt LDS (lithium dodecyl sulfate) sample buffer with 20% β-mercaptoethanol and boiled for 15 min. 5-15 μg of sample (cells) and an equivalent fraction of media were electrophoresed on Bolt 4-12% Bis-Tris Plus gels with Bolt MES SDS running buffer and the Precision Plus Protein Dual Color Standards (Biorad, Hercules, CA) molecular weight markers. After electrophoresis, the separated proteins were transferred onto a 0.2 μm pore size PVDF membrane for 90 minutes at 400 mA and 4° C. in Bolt Transfer Buffer using BioRad midi transfer chambers. […] Membranes were scanned and quantitated using the Odyssey CLx Imaging System (LI-COR, Lincoln, NE). […]

αSyn [3] = target: T1, αSyn; assay: seeded αSyn fibrillization assay (αSyn seeds added at initiation); format: biochemical; design: made in house; host or cells: E. coli BL21(DE3), pET-21d
Experimental: as §1, with “To generate αSyn seeds for the seeding assays, αSyn at 10 mg/mL was incubated with stirring at 43° C. for 24 hours followed by exhaustive sonication. 1% (by mass) of seeds were added to the fibrillization assay. Samples were plated in quadruplicate, and the replicates averaged for each experiment for plotted data.” left out

| SMILES | impact on αSyn fibrillization (thioflavin fluorescence signal) (αSyn [1]) | impact on cellular αSyn protein levels (αSyn [2]) | impact on seeded fibrillization (αSyn [3]; preformed αSyn fibrils/protofibrils added at initiation) | time at which activity is first seen in seeded fibrillization (αSyn [3]; seeded fibrillization, time in the incubation) | inhibition of aggregation when used as control (αSyn [1]; over 30 synuclein fibrillization experiments) |
| --- | --- | --- | --- | --- | --- |
| Cc1c(-c2csc(NC(C(N)=O)C3CCNCC3)n2)sc2ccccc12 (stereo not shown) [Compound 573437, 2-((4-(3-methylbenzo[b]thiophen-2-yl)thiazol-2-yl)amino)-2-(piperidin-4-yl)acetamide] | missed by the more variable αSyn fibrillization assay |  |  |  |  |
| CNC(=O)c1cc(O)ccc1N [Compound 576755, 2-amino-5-hydroxy-N-methylbenzamide] | inhibit fibrillization; also recorded: impair fibrillization | no impact on αSyn levels | blocks fibrillization; also recorded: anti-aggregation activity | ≤ 2 h | robust inhibition of aggregation in all assays |
| CNC(=O)CN(C(=O)Cc1noc2ccccc12)C(C)c1ccc(Cl)cc1 (stereo not shown) [Compound 582032, 2-(benzo[d]isoxazol-3-yl)-N-(1-(4-chlorophenyl)ethyl)-N-(2-(methylamino)-2-oxoethyl)acetamide] | inhibit fibrillization; also recorded: impair fibrillization |  |  |  |  |
